From US20100267561A1, “HERBICIDAL PYRIDAZINONE DERIVATIVES” (priority 2007, published 2010)

What was measured:
Test in all cases: Test E pre-/postemergence plant response
Assay type in all cases: in vivo
Settings in all cases: scale 0 to 100
[1] = tested on: Italian ryegrass (Lolium multiflorum)
How it was run: (§1)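 Seeds were planted and treated preemergence with compound formulated in a non-phytotoxic solvent mixture containing surfactant; postemergence sprays in the same formulation went onto plants 2 to 18 cm tall (1- to 4-leaf stage). After 14 to 21 days in a greenhouse, injury versus untreated controls was rated visually, 0 (no effect) to 100 (complete control).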

[2] = tested on: annual bluegrass (Poa annua)
How it was run: as §1

[3] = tested on: barnyardgrass (Echinochloa crus-galli)
How it was run: as §1

[4] = tested on: bermudagrass (Cynodon dactylon)
How it was run: as §1

[5] = tested on: black mustard (Brassica nigra)
How it was run: as §1

[6] = tested on: broadleaf signalgrass (Brachiaria platyphylla)
How it was run: as §1

[7] = tested on: common mallow (Malva sylvestris)
How it was run: as §1

[8] = tested on: common purslane (Portulaca oleracea)
How it was run: as §1

[9] = tested on: dallisgrass (Paspalum dilatatum)
How it was run: as §1

[10] = tested on: green foxtail (Setaria viridis)
How it was run: as §1

[11] = tested on: guineagrass (Panicum maximum)
How it was run: as §1

[12] = tested on: itchgrass (Rottboellia cochinchinensis)
How it was run: as §1

[13] = tested on: johnsongrass (Sorghum halepense)
How it was run: as §1

[14] = tested on: pitted morningglory (Ipomoea lacunosa)
How it was run: as §1

[15] = tested on: purple nutsedge (Cyperus rotundus)
How it was run: as §1

[16] = tested on: southern (S.) sandbur (Cenchrus echinatus)
How it was run: as §1

[17] = tested on: surinam grass (Brachiaria decumbens)
How it was run: as §1

Cc1cc(-c2ccc(Cl)cc2)nn1-c1c(OS(=O)(=O)c2ccccc2)cnn(C)c1=O [Compound 35]
100: Plant response rating, Ryegrass, Italian ([1]; 31 g ai/ha, Preemergence) | Plant response rating, Ryegrass, Italian ([1]; 62 g ai/ha, Preemergence) | Plant response rating, Barnyardgrass ([3]; 62 g ai/ha, Preemergence) | Plant response rating, Barnyardgrass ([3]; Postemergence, 31 g ai/ha) | Plant response rating, Barnyardgrass ([3]; Postemergence, 62 g ai/ha) | Plant response rating, Bermudagrass ([4]; 62 g ai/ha, Preemergence) | Plant response rating, Signalgrass ([6]; 31 g ai/ha, Preemergence) | Plant response rating, Signalgrass ([6]; 62 g ai/ha, Preemergence) | Plant response rating, Signalgrass ([6]; Postemergence, 62 g ai/ha) | Plant response rating, Guineagrass ([11]; 16 g ai/ha, Preemergence) | Plant response rating, Guineagrass ([11]; 31 g ai/ha, Preemergence) | Plant response rating, Guineagrass ([11]; 62 g ai/ha, Preemergence) | Plant response rating, Sandbur, S. ([16]; 62 g ai/ha, Preemergence) | Plant response rating, Surinam Grass ([17]; 31 g ai/ha, Preemergence) | Plant response rating, Surinam Grass ([17]; 62 g ai/ha, Preemergence)
35: Plant response rating, Bermudagrass ([4]; Postemergence, 8 g ai/ha) | Plant response rating, Foxtail, Green ([10]; 16 g ai/ha, Preemergence)
75: Plant response rating, Barnyardgrass ([3]; Postemergence, 16 g ai/ha) | Plant response rating, Signalgrass ([6]; Postemergence, 31 g ai/ha) | Plant response rating, Foxtail, Green ([10]; Postemergence, 62 g ai/ha) | Plant response rating, Guineagrass ([11]; Postemergence, 8 g ai/ha) | Plant response rating, Guineagrass ([11]; Postemergence, 16 g ai/ha) | Plant response rating, Itchgrass ([12]; 16 g ai/ha, Preemergence) | Plant response rating, Itchgrass ([12]; 31 g ai/ha, Preemergence) | Plant response rating, Itchgrass ([12]; 62 g ai/ha, Preemergence) | Plant response rating, Johnsongrass ([13]; 16 g ai/ha, Preemergence) | Plant response rating, Sandbur, S. ([16]; 16 g ai/ha, Preemergence) | Plant response rating, Sandbur, S. ([16]; Postemergence, 16 g ai/ha) | Plant response rating, Sandbur, S. ([16]; Postemergence, 31 g ai/ha) | Plant response rating, Sandbur, S. ([16]; Postemergence, 62 g ai/ha) | Plant response rating, Surinam Grass ([17]; Postemergence, 16 g ai/ha)
65: Plant response rating, Bermudagrass ([4]; Postemergence, 16 g ai/ha) | Plant response rating, Foxtail, Green ([10]; Postemergence, 31 g ai/ha)
20: Plant response rating, Ryegrass, Italian ([1]; Postemergence, 8 g ai/ha) | Plant response rating, Ryegrass, Italian ([1]; Postemergence, 16 g ai/ha)
95: Plant response rating, Ryegrass, Italian ([1]; Postemergence, 62 g ai/ha) | Plant response rating, Barnyardgrass ([3]; 31 g ai/ha, Preemergence) | Plant response rating, Guineagrass ([11]; Postemergence, 62 g ai/ha) | Plant response rating, Surinam Grass ([17]; 16 g ai/ha, Preemergence)
60: Plant response rating, Ryegrass, Italian ([1]; Postemergence, 31 g ai/ha) | Plant response rating, Barnyardgrass ([3]; Postemergence, 8 g ai/ha) | Plant response rating, Bermudagrass ([4]; 8 g ai/ha, Preemergence) | Plant response rating, Signalgrass ([6]; Postemergence, 8 g ai/ha) | Plant response rating, Dallisgrass ([9]; Postemergence, 62 g ai/ha) | Plant response rating, Foxtail, Green ([10]; Postemergence, 16 g ai/ha)
0: Plant response rating, Bluegrass ([2]; 8 g ai/ha, Preemergence) | Plant response rating, Bluegrass ([2]; 16 g ai/ha, Preemergence) | Plant response rating, Bluegrass ([2]; 31 g ai/ha, Preemergence) | Plant response rating, Bluegrass ([2]; 62 g ai/ha, Preemergence) | Plant response rating, Bluegrass ([2]; Postemergence, 8 g ai/ha) | Plant response rating, Bluegrass ([2]; Postemergence, 16 g ai/ha) | Plant response rating, Bluegrass ([2]; Postemergence, 31 g ai/ha) | Plant response rating, Bluegrass ([2]; Postemergence, 62 g ai/ha) | Plant response rating, Mustard, Black ([5]; 8 g ai/ha, Preemergence) | Plant response rating, Mustard, Black ([5]; 16 g ai/ha, Preemergence) | Plant response rating, Mustard, Black ([5]; 31 g ai/ha, Preemergence) | Plant response rating, Mustard, Black ([5]; 62 g ai/ha, Preemergence) | Plant response rating, Mustard, Black ([5]; Postemergence, 8 g ai/ha) | Plant response rating, Mustard, Black ([5]; Postemergence, 16 g ai/ha) | Plant response rating, Mustard, Black ([5]; Postemergence, 31 g ai/ha) | Plant response rating, Mustard, Black ([5]; Postemergence, 62 g ai/ha) | Plant response rating, Mallow ([7]; 62 g ai/ha, Preemergence) | Plant response rating, Mallow ([7]; Postemergence, 8 g ai/ha) | Plant response rating, Mallow ([7]; Postemergence, 16 g ai/ha) | Plant response rating, Mallow ([7]; Postemergence, 31 g ai/ha) | Plant response rating, Mallow ([7]; Postemergence, 62 g ai/ha) | Plant response rating, Purslane ([8]; 16 g ai/ha, Preemergence) | Plant response rating, Purslane ([8]; 31 g ai/ha, Preemergence) | Plant response rating, Purslane ([8]; 62 g ai/ha, Preemergence) | Plant response rating, Purslane ([8]; Postemergence, 8 g ai/ha) | Plant response rating, Purslane ([8]; Postemergence, 16 g ai/ha) | Plant response rating, Purslane ([8]; Postemergence, 31 g ai/ha) | Plant response rating, Purslane ([8]; Postemergence, 62 g ai/ha) | Plant response rating, Dallisgrass ([9]; 8 g ai/ha, Preemergence) | Plant response rating, Morningglory ([14]; 16 g ai/ha, Preemergence) | Plant response rating, Morningglory ([14]; 31 g ai/ha, Preemergence) | Plant response rating, Morningglory ([14]; 62 g ai/ha, Preemergence) | Plant response rating, Morningglory ([14]; Postemergence, 8 g ai/ha) | Plant response rating, Morningglory ([14]; Postemergence, 16 g ai/ha) | Plant response rating, Morningglory ([14]; Postemergence, 31 g ai/ha) | Plant response rating, Morningglory ([14]; Postemergence, 62 g ai/ha) | Plant response rating, Nutsedge, Purple ([15]; 16 g ai/ha, Preemergence) | Plant response rating, Nutsedge, Purple ([15]; 62 g ai/ha, Preemergence) | Plant response rating, Nutsedge, Purple ([15]; Postemergence, 8 g ai/ha) | Plant response rating, Nutsedge, Purple ([15]; Postemergence, 16 g ai/ha) | Plant response rating, Nutsedge, Purple ([15]; Postemergence, 31 g ai/ha) | Plant response rating, Nutsedge, Purple ([15]; Postemergence, 62 g ai/ha)
98: Plant response rating, Ryegrass, Italian ([1]; 16 g ai/ha, Preemergence) | Plant response rating, Bermudagrass ([4]; 31 g ai/ha, Preemergence) | Plant response rating, Foxtail, Green ([10]; 62 g ai/ha, Preemergence) | Plant response rating, Johnsongrass ([13]; Postemergence, 62 g ai/ha)
50: Plant response rating, Dallisgrass ([9]; Postemergence, 31 g ai/ha) | Plant response rating, Johnsongrass ([13]; Postemergence, 16 g ai/ha)
90: Plant response rating, Bermudagrass ([4]; Postemergence, 62 g ai/ha) | Plant response rating, Dallisgrass ([9]; 31 g ai/ha, Preemergence) | Plant response rating, Dallisgrass ([9]; 62 g ai/ha, Preemergence) | Plant response rating, Foxtail, Green ([10]; 31 g ai/ha, Preemergence) | Plant response rating, Johnsongrass ([13]; 62 g ai/ha, Preemergence) | Plant response rating, Sandbur, S. ([16]; 31 g ai/ha, Preemergence) | Plant response rating, Surinam Grass ([17]; Postemergence, 62 g ai/ha)
40: Plant response rating, Barnyardgrass ([3]; 8 g ai/ha, Preemergence) | Plant response rating, Dallisgrass ([9]; 16 g ai/ha, Preemergence) | Plant response rating, Foxtail, Green ([10]; Postemergence, 8 g ai/ha) | Plant response rating, Itchgrass ([12]; Postemergence, 16 g ai/ha) | Plant response rating, Johnsongrass ([13]; Postemergence, 8 g ai/ha) | Plant response rating, Sandbur, S. ([16]; Postemergence, 8 g ai/ha)
30: Plant response rating, Dallisgrass ([9]; Postemergence, 8 g ai/ha) | Plant response rating, Dallisgrass ([9]; Postemergence, 16 g ai/ha) | Plant response rating, Itchgrass ([12]; Postemergence, 8 g ai/ha)
70: Plant response rating, Signalgrass ([6]; Postemergence, 16 g ai/ha) | Plant response rating, Itchgrass ([12]; Postemergence, 31 g ai/ha) | Plant response rating, Itchgrass ([12]; Postemergence, 62 g ai/ha) | Plant response rating, Johnsongrass ([13]; Postemergence, 31 g ai/ha) | Plant response rating, Surinam Grass ([17]; Postemergence, 8 g ai/ha)
15: Plant response rating, Foxtail, Green ([10]; 8 g ai/ha, Preemergence)
80: Plant response rating, Barnyardgrass ([3]; 16 g ai/ha, Preemergence) | Plant response rating, Bermudagrass ([4]; 16 g ai/ha, Preemergence) | Plant response rating, Bermudagrass ([4]; Postemergence, 31 g ai/ha) | Plant response rating, Signalgrass ([6]; 16 g ai/ha, Preemergence) | Plant response rating, Guineagrass ([11]; Postemergence, 31 g ai/ha) | Plant response rating, Johnsongrass ([13]; 31 g ai/ha, Preemergence) | Plant response rating, Surinam Grass ([17]; Postemergence, 31 g ai/ha)
